{"source": "patent US20230030915A1", "about": "“Pet Food Compositions” (Hill's Pet Nutrition, Inc., priority 2019, published 2023)", "origin": "cited, not measured here", "tested_on": "piglets"}
{"smiles": "C[N+](C)(C)CC(=O)O", "note": "[Betaine, Glycine betaine]", "values": [{"measurement": "margin of safety", "setting": "at 2 000 mg/kg complete feed", "value": "below 5"}, {"measurement": "maximum supplementation rate at which safe", "setting": "via feed", "value": "2 000 mg/kg complete feed"}]}
